Assay: recombinant UMI read abundance after kanamycin selection (control-corrected) (log10(CPM+1)); higher = more efficient recombination; extreme values may be limits of the assay; sequences stand for … in AGTGCAGAGAAAATCGGCCAGTTTTCTCTGCCTGCAGTCCGCATGCCGTGGGACCCCTTGGGTTCTAACCTGTTGCCTAGATTTATGCAGCGGACTGCCTTTCTCCCAAAGTGATAAACCGG…AGGTTGGTTTCACT; site = the 11-nt donor
Method in brief: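 Values are reported as log10(CPM+1), obtained by converting sequencing counts to CPM, averaging replicates and scaling by control-derived factors. The counts came from recombinant UMIs amplified by PCR across the donor–target junction. These UMIs came from a pooled Escherichia coli screen of donor and donor-binding-loop pairs for the IS621 bridge recombinase, plated with IPTG (0.07 mM) plus kanamycin or left unselected, in two replicates each.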
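Note: IS621 bridge recombinase in Escherichia coli cells against a fixed T5 target plasmid.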

| Sequence | recombinant UMI read abundance (log10) |
| --- | --- |
| ATGATGGCATGGACCGGTTTTCCCGGTAATCCGTATTTGAC (site ATGATGGCTGT) | 2.7 |
| ATGCAGGCATGGACCGGTTTTCCCGGTAATCCGTATTTGGC (site ATGAAGGCTGC) | 0 |
| ATGCAGGCATGGACCGGTTTTCCCGGTAATCCGTATTTGGC (site ATGCAGGCTGC) | 2.77 |
| ATGCAGGCATGGACCGGTTTTCCCGGTAATCCGTATTTGGC (site ATGGAGGCTGC) | 0 |
| ATGCAGGCATGGACCGGTTTTCCCGGTAATCCGTATTTGGC (site ATGTAGGCTGC) | 0.922 |
| ATGCCACCATGGACCGGTTTTCCCGGTAATCCGTATTTGTA (site ATGCCACCTTA) | 0 |
| ATGCTGACATGGACCGGTTTTCCCGGTAATCCGTATTTGGT (site ATGCTGACTAC) | 1.32 |
| ATGCTTCCATGGACCGGTTTTCCCGGTAATCCGTATTTGCA (site ATGCTTCCTTG) | 1.47 |
| ATGGAGACATGGACCGGTTTTCCCGGTAATCCGTATTTGGT (site ATAGAGACTAC) | 1.66 |
| ATGGAGACATGGACCGGTTTTCCCGGTAATCCGTATTTGGT (site ATCGAGACTAC) | 0.157 |
| ATGGAGACATGGACCGGTTTTCCCGGTAATCCGTATTTGGT (site ATGGAGACTAC) | 1.83 |
| ATGGAGACATGGACCGGTTTTCCCGGTAATCCGTATTTGGT (site ATTGAGACTAC) | 0.681 |
| ATGGAGTCATGGACCGGTTTTCCCGGTAATCCGTATTTGGA (site ATGGAGTCTTC) | 2.86 |
| ATGGGAGCATGGACCGGTTTTCCCGGTAATCCGTATTTGCT (site ATGGGAGCTAG) | 2.19 |
| ATGGGCTCATGGACCGGTTTTCCCGGTAATCCGTATTTGTC (site ATGGGCTCTGA) | 2.97 |
| ATGGGGTCATGGACCGGTTTTCCCGGTAATCCGTATTTGAC (site ATGGGGTCTGT) | 3.47 |
| ATGGTTCCATGGACCGGTTTTCCCGGTAATCCGTATTTGTC (site ATGGTTCCTGA) | 1.67 |
| ATGTACACATGGACCGGTTTTCCCGGTAATCCGTATTTGAA (site ATGTACACTTT) | 1.82 |
| ATGTAGACATGGACCGGTTTTCCCGGTAATCCGTATTTGGC (site ATGTAGACTGC) | 2.91 |
| ATGTAGACATGGACCGGTTTTCCCGGTAATCCGTATTTGGC (site ATGTAGCCTGC) | 0 |
| ATGTAGACATGGACCGGTTTTCCCGGTAATCCGTATTTGGC (site ATGTAGGCTGC) | 2.14 |
| ATGTAGACATGGACCGGTTTTCCCGGTAATCCGTATTTGGC (site ATGTAGTCTGC) | 1.67 |
| ATGTAGCCATGGACCGGTTTTCCCGGTAATCCGTATTTGTT (site ATGTAGCCTAA) | 0.171 |
| ATGTAGGCATGGACCGGTTTTCCCGGTAATCCGTATTTGAC (site ATGTAGGCTGA) | 2.33 |
| ATGTAGGCATGGACCGGTTTTCCCGGTAATCCGTATTTGAC (site ATGTAGGCTGC) | 1.87 |

| Sequence | recombinant UMI read abundance (log10) |
| --- | --- |
| ATGTAGGCATGGACCGGTTTTCCCGGTAATCCGTATTTGAC (site ATGTAGGCTGG) | 1.57 |
| ATGTAGGCATGGACCGGTTTTCCCGGTAATCCGTATTTGAC (site ATGTAGGCTGT) | 3.04 |
| ATGTAGTCATGGACCGGTTTTCCCGGTAATCCGTATTTGGC (site ATGTAGACTGC) | 1.85 |
| ATGTAGTCATGGACCGGTTTTCCCGGTAATCCGTATTTGGC (site ATGTAGCCTGC) | 0 |
| ATGTAGTCATGGACCGGTTTTCCCGGTAATCCGTATTTGGC (site ATGTAGGCTGC) | 0 |
| ATGTAGTCATGGACCGGTTTTCCCGGTAATCCGTATTTGGC (site ATGTAGTCTGC) | 3.26 |
| ATGTATGCATGGACCGGTTTTCCCGGTAATCCGTATTTGGC (site ATGTAAGCTGC) | 1.52 |
| ATGTATGCATGGACCGGTTTTCCCGGTAATCCGTATTTGGC (site ATGTACGCTGC) | 1.51 |
| ATGTATGCATGGACCGGTTTTCCCGGTAATCCGTATTTGGC (site ATGTAGGCTGC) | 0.86 |
| ATGTATGCATGGACCGGTTTTCCCGGTAATCCGTATTTGGC (site ATGTATGCTGC) | 3.22 |
| ATGTCCTCATGGACCGGTTTTCCCGGTAATCCGTATTTGTA (site ATGTCCTCTTA) | 2.5 |
| ATGTCGTCATGGACCGGTTTTCCCGGTAATCCGTATTTGTA (site ATGTCGTCTTA) | 1.95 |
| ATGTGCCCATGGACCGGTTTTCCCGGTAATCCGTATTTGCG (site ATGTGCCCTCG) | 0 |
| ATGTTCCCATGGACCGGTTTTCCCGGTAATCCGTATTTGTG (site AAGTTCCCTCA) | 0.0217 |
| ATGTTCCCATGGACCGGTTTTCCCGGTAATCCGTATTTGTG (site ACGTTCCCTCA) | 0.0446 |
| ATGTTCCCATGGACCGGTTTTCCCGGTAATCCGTATTTGTG (site AGGTTCCCTCA) | 0.0415 |
| ATGTTCCCATGGACCGGTTTTCCCGGTAATCCGTATTTGTG (site ATGTTCCCTCA) | 0.419 |
| ATGTTCGCATGGACCGGTTTTCCCGGTAATCCGTATTTGTA (site ATGTTCGCTTA) | 2.46 |
| ATGTTTGCATGGACCGGTTTTCCCGGTAATCCGTATTTGAT (site ATGTTTGCTAT) | 2.16 |
| ATTAAACCATGGACCGGTTTTCCCGGTAATCCGTATTTGCC (site ATTAAACCTGG) | 0 |
| ATTAAAGCATGGACCGGTTTTCCCGGTAATCCGTATTTGTA (site ATTAAAGCTTA) | 2.6 |
| ATTAAGACATGGACCGGTTTTCCCGGTAATCCGTATTTGGT (site ATTAAGACTAC) | 1.07 |
| ATTAAGACATGGACCGGTTTTCCCGGTAATCCGTATTTGGT (site ATTCAGACTAC) | 0.417 |
| ATTAAGACATGGACCGGTTTTCCCGGTAATCCGTATTTGGT (site ATTGAGACTAC) | 0.577 |
| ATTAAGACATGGACCGGTTTTCCCGGTAATCCGTATTTGGT (site ATTTAGACTAC) | 0.285 |

| Sequence | recombinant UMI read abundance (log10) |
| --- | --- |
| ATTAGGCCATGGACCGGTTTTCCCGGTAATCCGTATTTGTG (site ATTAGGCCTCA) | 0.00967 |
| ATTCAAGCATGGACCGGTTTTCCCGGTAATCCGTATTTGAG (site ATACAAGCTCT) | 1.07 |
| ATTCAAGCATGGACCGGTTTTCCCGGTAATCCGTATTTGAG (site ATCCAAGCTCT) | 0.605 |
| ATTCAAGCATGGACCGGTTTTCCCGGTAATCCGTATTTGAG (site ATGCAAGCTCT) | 0.501 |
| ATTCAAGCATGGACCGGTTTTCCCGGTAATCCGTATTTGAG (site ATTCAAGCTCT) | 1.16 |
| ATTCAGACATGGACCGGTTTTCCCGGTAATCCGTATTTGGT (site ATTAAGACTAC) | 0.402 |
| ATTCAGACATGGACCGGTTTTCCCGGTAATCCGTATTTGGT (site ATTCAGACTAC) | 0.566 |
| ATTCAGACATGGACCGGTTTTCCCGGTAATCCGTATTTGGT (site ATTGAGACTAC) | 0.305 |
| ATTCAGACATGGACCGGTTTTCCCGGTAATCCGTATTTGGT (site ATTTAGACTAC) | 0.0116 |
| ATTCATACATGGACCGGTTTTCCCGGTAATCCGTATTTGTT (site ATTCATACTAA) | 0.291 |
| ATTGAGACATGGACCGGTTTTCCCGGTAATCCGTATTTGGG (site ATTGAGACTAC) | 0.0103 |
| ATTGAGACATGGACCGGTTTTCCCGGTAATCCGTATTTGGG (site ATTGAGACTCC) | 0.0142 |
| ATTGAGACATGGACCGGTTTTCCCGGTAATCCGTATTTGGG (site ATTGAGACTGC) | 0 |
| ATTGAGACATGGACCGGTTTTCCCGGTAATCCGTATTTGGG (site ATTGAGACTTC) | 0.0235 |
| ATTGAGTCATGGACCGGTTTTCCCGGTAATCCGTATTTGGT (site ATTGAGACTAC) | 0.0845 |
| ATTGAGTCATGGACCGGTTTTCCCGGTAATCCGTATTTGGT (site ATTGAGCCTAC) | 0.00525 |
| ATTGAGTCATGGACCGGTTTTCCCGGTAATCCGTATTTGGT (site ATTGAGGCTAC) | 0 |
| ATTGAGTCATGGACCGGTTTTCCCGGTAATCCGTATTTGGT (site ATTGAGTCTAC) | 2.29 |
| ATTGTAACATGGACCGGTTTTCCCGGTAATCCGTATTTGCT (site AATGTAACTAG) | 1.49 |
| ATTGTAACATGGACCGGTTTTCCCGGTAATCCGTATTTGCT (site ACTGTAACTAG) | 1.9 |
| ATTGTAACATGGACCGGTTTTCCCGGTAATCCGTATTTGCT (site AGTGTAACTAG) | 1.5 |
| ATTGTAACATGGACCGGTTTTCCCGGTAATCCGTATTTGCT (site ATTGTAACTAG) | 2.15 |
| ATTGTTGCATGGACCGGTTTTCCCGGTAATCCGTATTTGAC (site ATTGTTGCTGT) | 2.18 |
| ATTGTTGCATGGACCGGTTTTCCCGGTAATCCGTATTTGCT (site ATTGTTGCTAG) | 2.37 |
| ATTTAGACATGGACCGGTTTTCCCGGTAATCCGTATTTGCG (site ATTTAGACTCG) | 1.16 |

From the supplement of paper PMC11208160
